In brackets after ≈: the same amount, converted by molar mass.
Legend:
Type in all cases: physicochemical
[1] = Solid state stability study of polymorph (purity by HPLC and crystal form change after 7 days storage); details: for Purity (%) / Initial purity (%): HPLC; for Initial purity (%): before storage
[2] = Hygroscopic behavior test by dynamic vapor sorption (DVS); details: for solid form change after DVS / hygroscopicity / Sample weight change at 80% RH (%): 25° C.; for solid form change after DVS: 0-90% RH; for hygroscopicity: 0-90% RH adsorption curve, at 80% RH; for Whether the crystal form is changed: after DVS test at 25° C.
Excerpt: The experimental method for characterizing an acid salt or a base salt of compound III by dynamic vapor sorption (DVS) was as follows: A small amount of a powder of a polymorph of compound III was taken and placed into a precise sample tray that matches the instrument. After the sample was loaded, the sample tray was sent into the instrument for analysis. In the present disclosure, the instrument model used in the dynamic vapor sorption analysis was Intrinsic PLUS; the experimental parameter was set as follows: a constant temperature of 25° C. was set; the mass percent change rate per unit time (dm/dt)=0.02%/min was used as a criterion for determining that a balance is achieved; the program humidity change cycle was set as follows: the initial relative humidity was 0%, and the endpoint relative humidity was 90%.
The DVS plot of the amorphous solid of the compound is shown in FIG. 67, and the DVS plot of crystal form D of the compound is shown in FIG. 68 The results are shown in the table below
The inventors assessed the stability risk of samples under varying humidity at 25° C. using the dynamic vapor sorption method and conducted the DVS test on the representative crystal form 2A of compound II to evaluate the hygroscopicity of the crystal form of the compound.

[3] = Solid state stability study of polymorph (purity by HPLC and crystal form change after 7 days storage); details: for purity change, long-term storage condition: 25° C./60% RH; for purity change, long-term storage condition / purity change, accelerated condition / purity change, high-temperature condition: 7 days; for purity change, high-temperature condition: 60° C., RH<30%; for crystal form change after storage: 7 days in long-term storage, accelerated and high-temperature conditions; for overall solid state stability: 7 days storage study, conclusion
Protocol: Crystal form 2A of compound II was preserved in long-term storage (25° C./60% RH), accelerated (40° C./75% RH), and high-temperature (60° C., RH<30%) conditions for 7 days, and tested for purity and crystal form change by HPLC, so as to examine the stability of the solids.

[4] = Equilibrium solubility study of polymorph in biological media (supernatant concentration; residual solid by XRPD); details: for Whether the crystal form is changed: residual solid by XRPD after 24 h at 37±2° C.; for solubility thermodynamic at 24 h: 37 °C, thermodynamic from solid, suspension ~10 mg/mL, 37±2° C.
[5] = as above; details: for crystal form change of the solid in FaSSGF: ~10 mg/mL suspension; for crystal form change of the solid in FaSSGF / crystal form change of the solid in other media: solid tested by XRPD; for Whether the crystal form is changed: residual solid by XRPD after 24 h at 37±2° C.; for stability in biological media compared with the amorphous solid: H2O; for crystal form change of the solid in other media: media other than FaSSGF (H2O, FaSSIF, FeSSIF)
Protocol: In the tests, the solids were suspended in corresponding buffers to formulate suspensions (˜10 mg/mL), and the suspensions were mixed at 37±2° C. After 24 h, samples of the suspensions were taken. The supernatant was filtered, and the concentration was determined. The solid was tested by XRPD.
Crystal form 2A of compound II was tested for its equilibrium solubility in water (H2O), fasted state simulated gastric fluid (FaSSGF), fasted state simulated intestinal fluid (FaSSIF), and fed state simulated intestinal fluid (FeSSIF). In the tests, the solids were suspended in corresponding buffers to formulate suspensions (˜10 mg/mL), and the suspensions were mixed at 37±2° C. After 24 h, samples of the suspensions were taken. The supernatant was filtered, and the concentration was determined. The solid was tested by XRPD.

[6] = 25° C./60% RH, 7 days (long-term storage), compound I
[7] = 40° C./75% RH, 7 days (accelerated), compound I
[8] = 60° C., 7 days (high-temperature, RH<30%), compound I
[9] = 25° C./60% RH, 7 days (long-term storage), compound II
[10] = 60° C., 7 days (high-temperature, RH<30%), compound II
[11] = FaSSGF, FaSSIF, FeSSIF, 37±2° C., 24 h

In the case of O=C(O)c1ccc2nc(CN3CCC(Oc4cccc(COc5ccc(Cl)cc5F)n4)CC3)n(C[C@@H]3CCO3)c2c1 [amorphous solid of compound I, (S)-2-((4-((6-((4-chloro-2-fluorophenoxy)methyl)pyridin-2-yl)oxy)piperidin-1-yl)methyl)-1-(oxetan-2-ylmethyl)-1/-benzo[d]imidazole-6-carboxylic acid], the “Purity (%)” value [1, 6] was 98.94%, the Crystal form change [1, 6] was “No” and the “Purity (%)” value [1, 7] was 95.86%. For the same compound, the Crystal form change [1, 7] was “No”, the “Purity (%)” value [1, 8] was 89.15% and the Crystal form change [1, 8] was “No”. The “Initial purity (%)” value ([1]; compound I) was 98.98%, the “solid form change after DVS” value [2] was “no solid form changes were observed” and the hygroscopicity [2] was “slightly hygroscopic”. The hygroscopicity ([2]; DVS, compound I) was “Slightly hygroscopic”, the “Sample weight change at 80% RH (%)” value ([2]; DVS, compound I) was 0.90% and the “Whether the crystal form is changed” value ([2]; compound I) was “No”. The “purity change, long-term storage condition” value ([3]; HPLC) was “no significant purity changes”, the “purity change, accelerated condition” value ([3]; 40° C./75% RH, HPLC) was “significant degradation” and the “purity change, high-temperature condition” value ([3]; HPLC) was “significant degradation”. For the same compound, the “Whether the crystal form is changed” value ([4]; H2O, polymorph of compound I) was “No”.

In the case of N#Cc1ccc(OCc2cccc(OC3CCN(Cc4nc5ccc(C(=O)O)cc5n4C[C@@H]4CCO4)CC3)n2)c(F)c1 [crystal form 2A of compound II, (S)-2-((4-((6-((4-cyano-2-fluorophenoxy)methyl)pyridin-2-yl)oxy)piperidin-1-yl)methyl)-1-(oxetan-2-ylmethyl)-1H-benzo[d]imidazole-6-carboxylic acid], the “Purity (%)” value [1, 9] was 97.65%, the Crystal form change [1, 9] was “No” and the “Purity (%)” value [1, 10] was 97.63%. The Crystal form change [1, 10] was “No”, the “Initial purity (%)” value ([1]; compound II) was 97.71% and the “solid form change after DVS” value [2] was “no solid form changes were observed”. The hygroscopicity [2] was “slightly hygroscopic”, the hygroscopicity ([2]; DVS, compound II) was “Slightly hygroscopic” and the “Sample weight change at 80% RH (%)” value ([2]; DVS, compound II) was 0.71%. For the same compound, the “Whether the crystal form is changed” value ([2]; compound II) was “No”, the “crystal form change of the solid in FaSSGF” value ([5]; FaSSGF, 37±2° C., 24 h) was “converted into a hydrochloride salt” and the “Whether the crystal form is changed” value ([5]; FaSSIF, polymorph of compound II) was “No”. For the same compound, the “Whether the crystal form is changed” value ([5]; FeSSIF, polymorph of compound II) was “No”, the “stability in biological media compared with the amorphous solid” value [5, 11] was “significantly superior” and the solubility thermodynamic at 24 h ([5]; fasted state simulated gastric fluid (FaSSGF), 37 °C, fassgf or other biorelevant, thermodynamic from solid, FaSSGF, suspension ~10 mg/mL, 37±2° C., 24 h, polymorph of compound II) was 180 µg/mL (≈ 315 µM). For the same compound, the “crystal form change of the solid in other media” value ([5]; 37±2° C., 24 h) was “no crystal form changes”, the “purity change, long-term storage condition” value ([3]; HPLC) was “no significant purity changes” and the “Purity (%)” value ([3]; 40° C./75% RH, 7 days (accelerated), HPLC, compound II) was 97.38%. The Crystal form change ([3]; 40° C./75% RH, 7 days (accelerated), compound II) was “No”, the “purity change, accelerated condition” value ([3]; 40° C./75% RH, HPLC) was “no significant purity changes” and the “purity change, high-temperature condition” value ([3]; HPLC) was “no significant purity changes”. The “crystal form change after storage” value [3] was “no significant purity changes or significant crystal form changes”, the “overall solid state stability” value [3] was “good stability” and the “Whether the crystal form is changed” value ([4]; H2O, polymorph of compound II) was “No”. For the same compound, the solubility thermodynamic at 24 h ([4]; fasted state simulated intestinal fluid (FaSSIF), FaSSIF, polymorph of compound II) was 40 µg/mL (≈ 70 µM), the solubility thermodynamic at 24 h ([4]; fed state simulated intestinal fluid (FeSSIF), FeSSIF, polymorph of compound II) was 190 µg/mL (≈ 332 µM) and the solubility thermodynamic at 24 h ([4]; water, H2O, polymorph of compound II) was 90 µg/mL (≈ 157 µM).

In the case of O=C(O)c1ccc2nc(CN3CCC(Oc4cccc(COc5ccc(Cl)cc5F)n4)CC3)n(C[C@@H]3CCO3)c2c1 [crystal form D of compound I, (S)-2-((4-((6-((4-chloro-2-fluorophenoxy)methyl)pyridin-2-yl)oxy)piperidin-I-yl)methyl)-1-(oxetan-2-ylmethyl)-1H-benzo[d]imidazole-6-carboxylic acid], the “Purity (%)” value [1, 6] was 99.10%, the Crystal form change [1, 6] was “No” and the “Purity (%)” value [1, 7] was 98.98%. For the same compound, the Crystal form change [1, 7] was “No”, the “Purity (%)” value [1, 8] was 98.61% and the Crystal form change [1, 8] was “No”. For the same compound, the “Initial purity (%)” value ([1]; compound I) was 99.15%, the “solid form change after DVS” value [2] was “no solid form changes were observed” and the hygroscopicity [2] was “slightly hygroscopic”. For the same compound, the hygroscopicity ([2]; DVS, compound I) was “Slightly hygroscopic”, the “Sample weight change at 80% RH (%)” value ([2]; DVS, compound I) was 1.08% and the “Whether the crystal form is changed” value ([2]; compound I) was “No”. The “crystal form change of the solid in FaSSGF” value ([5]; FaSSGF, 37±2° C., 24 h) was “converted into a hydrochloride salt”, the “solubility in the FaSSIF system” value ([5]; FaSSIF, 37±2° C., 24 h, compared with amorphous solid) was “significantly improved solubility” and the “stability in biological media compared with the amorphous solid” value [5, 11] was “significantly superior”. The “crystal form change of the solid in other media” value ([5]; 37±2° C., 24 h) was “no crystal form change was observed”, the “purity change, long-term storage condition” value ([3]; HPLC) was “no significant purity changes” and the “purity change, accelerated condition” value ([3]; 40° C./75% RH, HPLC) was “slightly reduced purities”. The “purity change, high-temperature condition” value ([3]; HPLC) was “slightly reduced purities”, the “crystal form change after storage” value [3] was “no significant crystal form changes” and the “overall solid state stability” value [3] was “significantly superior”. The “Whether the crystal form is changed” value ([4]; FaSSIF, polymorph of compound I) was “No”, the “Whether the crystal form is changed” value ([4]; FeSSIF, polymorph of compound I) was “No” and the “Whether the crystal form is changed” value ([4]; H2O, polymorph of compound I) was “No”.
